Assay results as given in publication doi:10.1101/2024.07.24.604796 (bioRxiv, 2024).

Molecular target: full-length FhlA (Escherichia coli, UniProt P19323)
Assay type: binding
Details: 32 uM protein; 10 mM Tris pH 8, 100 mM NaCl, 5 mM MgCl2, on ice; labelled compound

Chain of full-length FhlA (P19323 whole entry): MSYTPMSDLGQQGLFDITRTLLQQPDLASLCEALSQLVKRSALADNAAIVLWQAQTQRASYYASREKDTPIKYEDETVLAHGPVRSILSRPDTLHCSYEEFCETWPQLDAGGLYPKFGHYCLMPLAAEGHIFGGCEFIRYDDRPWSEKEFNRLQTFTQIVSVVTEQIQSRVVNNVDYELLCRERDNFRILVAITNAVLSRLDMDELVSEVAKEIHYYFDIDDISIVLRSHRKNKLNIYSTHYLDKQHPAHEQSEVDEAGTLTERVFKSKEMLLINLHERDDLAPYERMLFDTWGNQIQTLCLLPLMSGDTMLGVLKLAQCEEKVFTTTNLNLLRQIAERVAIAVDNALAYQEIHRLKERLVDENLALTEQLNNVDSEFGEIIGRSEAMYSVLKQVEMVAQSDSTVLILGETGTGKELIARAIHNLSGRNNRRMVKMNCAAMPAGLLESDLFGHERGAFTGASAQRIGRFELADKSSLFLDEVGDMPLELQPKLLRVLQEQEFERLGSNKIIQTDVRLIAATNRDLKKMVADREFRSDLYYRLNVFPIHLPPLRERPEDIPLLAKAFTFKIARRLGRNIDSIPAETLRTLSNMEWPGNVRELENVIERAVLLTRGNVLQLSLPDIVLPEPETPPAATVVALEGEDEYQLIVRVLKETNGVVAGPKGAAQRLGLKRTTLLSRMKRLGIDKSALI

`O=CO` [formate] was tested, and the “14C-formate DRaCALA” value was “DRaCALA with full-length purified FhlA, and full-length E183K and E363K derivatives produced similar pattern”.
